Experimental data taken from patent publication US10259810B2, “N-sulfonylated pyrazolo[3,4-b]pyridin-6-carboxamides and method of use” (AbbVie S.à.r.l., priority 2015, dated 2019).

How the values were obtained:
ΔF508-CFTR [1] = molecular target: T1, ΔF508-CFTR (Homo sapiens, UniProt P13569, DEL508-508); assay: CFTR cell surface levels using HRP-tagged ΔF508-CFTR expressing CFBE cells, in the presence of a co-corrector; format: cell-based; conditions: HRP-tagged ΔF508-CFTR CFBE cells, in the presence of 3 μM co-corrector; for EC50: read-out: EC50
T1 construct: host or cells: CFBE41o-, doxycycline-inducible
Procedure, shortened: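 Chemiluminescent read-out of surface HRP (15 min, dark) after PBS washes. Activity is normalized as 100×(sample−DMSO)/(3 μM co-corrector alone−DMSO).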

ΔF508-CFTR [2] = molecular target: T1, ΔF508-CFTR; assay: CFTR cell surface levels using HRP-tagged ΔF508-CFTR expressing CFBE cells, intrinsic corrector capacity; format: cell-based; design: % Activation: concentration or dose not given beside the values; conditions: HRP-tagged ΔF508-CFTR expressing CFBE41o- cells, compound alone (intrinsic corrector capacity), 20 hours at 33° C.; for EC50: read-out: EC50
Procedure, shortened: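 Surface ΔF508-CFTR was measured as HRP chemiluminescence from an extracellular-loop-4 tag, expressed as percent activity between DMSO and a […] corrector control.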

T1 sequence (P13569 with tags, fused parts or gaps DEL508-508): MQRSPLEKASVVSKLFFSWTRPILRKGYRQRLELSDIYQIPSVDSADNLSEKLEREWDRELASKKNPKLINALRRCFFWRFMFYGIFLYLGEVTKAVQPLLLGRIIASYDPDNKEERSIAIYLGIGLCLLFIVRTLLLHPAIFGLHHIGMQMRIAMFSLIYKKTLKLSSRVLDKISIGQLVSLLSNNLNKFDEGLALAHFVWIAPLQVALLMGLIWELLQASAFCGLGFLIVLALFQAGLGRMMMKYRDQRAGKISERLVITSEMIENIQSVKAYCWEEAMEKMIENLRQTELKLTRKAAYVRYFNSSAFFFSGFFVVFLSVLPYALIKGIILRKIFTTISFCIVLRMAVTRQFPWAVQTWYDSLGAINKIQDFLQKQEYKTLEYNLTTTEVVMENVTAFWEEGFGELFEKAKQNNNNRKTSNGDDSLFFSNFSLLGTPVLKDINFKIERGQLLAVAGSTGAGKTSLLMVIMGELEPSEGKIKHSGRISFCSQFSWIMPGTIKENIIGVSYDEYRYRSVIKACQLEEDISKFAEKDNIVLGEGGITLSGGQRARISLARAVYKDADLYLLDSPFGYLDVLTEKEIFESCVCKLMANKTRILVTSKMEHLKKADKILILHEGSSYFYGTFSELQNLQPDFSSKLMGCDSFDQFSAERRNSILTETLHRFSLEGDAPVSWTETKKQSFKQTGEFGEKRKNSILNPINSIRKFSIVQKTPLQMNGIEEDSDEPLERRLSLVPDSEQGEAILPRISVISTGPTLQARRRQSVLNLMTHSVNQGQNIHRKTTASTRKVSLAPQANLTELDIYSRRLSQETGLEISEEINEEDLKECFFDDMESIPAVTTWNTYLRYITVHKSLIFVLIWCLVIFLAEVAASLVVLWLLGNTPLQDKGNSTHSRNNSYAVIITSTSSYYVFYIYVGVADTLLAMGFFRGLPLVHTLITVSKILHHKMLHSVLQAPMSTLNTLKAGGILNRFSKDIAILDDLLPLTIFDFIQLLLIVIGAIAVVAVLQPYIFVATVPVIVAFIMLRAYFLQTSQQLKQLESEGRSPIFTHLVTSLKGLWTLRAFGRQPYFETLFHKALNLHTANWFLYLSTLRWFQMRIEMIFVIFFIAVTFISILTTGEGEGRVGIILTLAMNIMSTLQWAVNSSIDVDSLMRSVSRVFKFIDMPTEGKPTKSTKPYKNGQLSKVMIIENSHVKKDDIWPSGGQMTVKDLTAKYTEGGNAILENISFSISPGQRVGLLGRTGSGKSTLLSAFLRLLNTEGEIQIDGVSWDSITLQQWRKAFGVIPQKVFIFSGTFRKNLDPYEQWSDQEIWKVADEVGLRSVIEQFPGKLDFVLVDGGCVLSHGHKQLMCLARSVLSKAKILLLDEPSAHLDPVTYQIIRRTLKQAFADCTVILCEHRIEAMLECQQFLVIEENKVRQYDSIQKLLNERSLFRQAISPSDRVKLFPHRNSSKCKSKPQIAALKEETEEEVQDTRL

SMILES	% Activation (ΔF508-CFTR [1]) [%]	EC50 (ΔF508-CFTR [1]) [nM]	% Activation (ΔF508-CFTR [2]) [%]	EC50 (ΔF508-CFTR [2]) [nM]
CS(=O)(=O)NC(=O)c1cc(-c2ccc(N3CCC(C#N)CC3)nc2)c2c(OC3CCOC3)nn(-c3ccccc3)c2n1 (stereo not shown) [Compound 277, 4-[6-(4-cyanopiperidin-1-yl)pyridin-3-yl]-N-(methanesulfonyl)-3-[(oxolan-3-yl)oxy]-1-phenyl-1H-pyrazolo[3,4-b]pyridine-6-carboxamide]	355.4	127	155.4	251
CC(C)c1nn(-c2cccc(N(C)C)c2)c2nc(C(=O)NS(C)(=O)=O)cc(OCC3CCOCC3)c12 [Compound 278, 1-[3-(dimethylamino)phenyl]-N-(methanesulfonyl)-4-[(oxan-4-yl)methoxy]-3-(propan-2-yl)-1H-pyrazolo[3,4-b]pyridine-6-carboxamide]	388.5	88.3	233.7	120
CC(C)c1nn(-c2ccc(F)cc2)c2nc(C(=O)NS(C)(=O)=O)cc(N3CCN(C4CCC4)CC3)c12 [Compound 280, 4-(4-cyclobutylpiperazin-1-yl)-1-(4-fluorophenyl)-N-(methanesulfonyl)-3-(propan-2-yl)-1H-pyrazolo[3,4-b]pyridine-6-carboxamide]	323.37	1010	121.9	1010
CS(=O)(=O)NC(=O)c1cc(OCCCN2CCOCC2)c2c(C3CCC3)nn(-c3ccccc3)c2n1 [Compound 281, 3-cyclobutyl-N-(methanesulfonyl)-4-[3-(morpholin-4-yl)propoxy]-1-phenyl-1H-pyrazolo[3,4-b]pyridine-6-carboxamide]	398.47	242	230.15	457
CC1(COc2cc(C(=O)NS(C)(=O)=O)nc3c2c(C2CCC2)nn3-c2ccccc2)CC(F)(F)C1 [Compound 282, 3-cyclobutyl-4-[(3,3-difluoro-1-methylcyclobutyl)methoxy]-N-(methanesulfonyl)-1-phenyl-1H-pyrazolo[3,4-b]pyridine-6-carboxamide]	379.95	89	127.8	129
CS(=O)(=O)NC(=O)c1cc(OCC2CCCO2)c2c(C3CCC3)nn(-c3ccccc3)c2n1 (stereo not shown) [Compound 283, 3-cyclobutyl-N-(methanesulfonyl)-4-[(oxolan-2-yl)methoxy]-1-phenyl-1H-pyrazolo[3,4-b]pyridine-6-carboxamide]	326.85	265	141.2	477
CC(C)c1nn(-c2ccc(F)cc2)c2nc(C(=O)NS(C)(=O)=O)cc(OCC3CCOCC3)c12 [Compound 284, 1-(4-fluorophenyl)-N-(methanesulfonyl)-4-[(oxan-4-yl)methoxy]-3-(propan-2-yl)-1H-pyrazolo[3,4-b]pyridine-6-carboxamide]	348.7	220	154.4	276
CC(C)c1nn(-c2ccc(F)cc2)c2nc(C(=O)NS(C)(=O)=O)cc(OCCC3CCOCC3)c12 [Compound 285, 1-(4-fluorophenyl)-N-(methanesulfonyl)-4-[2-(oxan-4-yl)ethoxy]-3-(propan-2-yl)-1H-pyrazolo[3,4-b]pyridine-6-carboxamide]	327.57	246	125.5	294
COCC1CCN(c2cc(C(=O)NS(=O)(=O)c3cn(C)cn3)nc3c2c(C2CCC2)nn3-c2ccccc2)CC1 [Compound 286, 3-cyclobutyl-4-[4-(methoxymethyl)piperidin-1-yl]-N-(1-methyl-1H-imidazole-4-sulfonyl)-1-phenyl-1H-pyrazolo[3,4-b]pyridine-6-carboxamide]	500.55	159	264	327
COCC1CCN(c2cc(C(=O)NS(=O)(=O)c3c(C)noc3C)nc3c2c(C2CCC2)nn3-c2ccccc2)CC1 [Compound 287, 3-cyclobutyl-N-(3,5-dimethyl-1,2-oxazole-4-sulfonyl)-4-[4-(methoxymethyl)piperidin-1-yl]-1-phenyl-1H-pyrazolo[3,4-b]pyridine-6-carboxamide]	450.9	128	204.9	183
COCC1CCN(c2cc(C(=O)NS(=O)(=O)CCCN(C)C)nc3c2c(C(C)C)nn3-c2ccc(F)cc2)CC1 [Compound 290, N-[3-(dimethylamino)propane-1-sulfonyl]-1-(4-fluorophenyl)-4-[4-(methoxymethyl)piperidin-1-yl]-3-(propan-2-yl)-1H-pyrazolo[3,4-b]pyridine-6-carboxamide]	382.2	536	200.4	617
CC(C)c1nn(-c2ccc(F)cc2)c2nc(C(=O)NS(C)(=O)=O)cc(OCCCN3CCOCC3)c12 [Compound 292, 1-(4-fluorophenyl)-N-(methanesulfonyl)-4-[3-(morpholin-4-yl)propoxy]-3-(propan-2-yl)-1H-pyrazolo[3,4-b]pyridine-6-carboxamide]	422.55	565	217.9	1060
CC(C)c1nn(-c2ccc(F)cc2)c2nc(C(=O)NS(C)(=O)=O)cc(OCC3(C)COC3)c12 [Compound 293, 1-(4-fluorophenyl)-N-(methanesulfonyl)-4-[(3-methyloxetan-3-yl)methoxy]-3-(propan-2-yl)-1H-pyrazolo[3,4-b]pyridine-6-carboxamide]	317.1	480	113.3	622
CC(C)c1nn(-c2ccc(F)cc2)c2nc(C(=O)NS(C)(=O)=O)cc(OCC3CCCO3)c12 (stereo not shown) [Compound 295, 1-(4-fluorophenyl)-N-(methanesulfonyl)-4-[(oxolan-2-yl)methoxy]-3-(propan-2-yl)-1H-pyrazolo[3,4-b]pyridine-6-carboxamide]	298.07	697	129.6	1050
CC(=O)N1CCC(COc2cc(C(=O)NS(C)(=O)=O)nc3c2c(C2CCC2)nn3-c2ccccc2)CC1 [Compound 296, 4-[(1-acetylpiperidin-4-yl)methoxy]-3-cyclobutyl-N-(methanesulfonyl)-1-phenyl-1H-pyrazolo[3,4-b]pyridine-6-carboxamide]	329.13	168	154.7	396
COCC1CCN(c2cc(C(=O)NS(=O)(=O)CCC(=O)N(C)C)nc3c2c(C2CCC2)nn3-c2ccccc2)CC1 [Compound 298, 3-cyclobutyl-N-[3-(dimethylamino)-3-oxopropane-1-sulfonyl]-4-[4-(methoxymethyl)piperidin-1-yl]-1-phenyl-1H-pyrazolo[3,4-b]pyridine-6-carboxamide]	481.2	81	312.9	282
CC(C)c1nn(-c2ccc(F)cc2)c2nc(C(=O)NS(C)(=O)=O)cc(OCCCN(C)C)c12 [Compound 299, 4-[3-(dimethylamino)propoxy]-1-(4-fluorophenyl)-N-(methanesulfonyl)-3-(propan-2-yl)-1H-pyrazolo[3,4-b]pyridine-6-carboxamide]	267.2	2510	81.41	3330
CS(=O)(=O)NC(=O)c1cc(-c2ccc(N3CCC(C#N)CC3)nc2)c2c(OC3COC3)nn(-c3ccccc3)c2n1 [Compound 300, 4-[6-(4-cyanopiperidin-1-yl)pyridin-3-yl]-N-(methanesulfonyl)-3-[(oxetan-3-yl)oxy]-1-phenyl-1H-pyrazolo[3,4-b]pyridine-6-carboxamide]	266.55	109	119.9	309
CN(C)CCCOc1cc(C(=O)NS(C)(=O)=O)nc2c1c(C1CCC1)nn2-c1ccccc1 [Compound 303, 3-cyclobutyl-4-[3-(dimethylamino)propoxy]-N-(methanesulfonyl)-1-phenyl-1H-pyrazolo[3,4-b]pyridine-6-carboxamide]	339.95	834	149.9	3330
CC(C)c1nn(-c2ccc(F)cc2)c2nc(C(=O)NS(C)(=O)=O)cc(OCC3(C)CC(F)(F)C3)c12 [Compound 306, 4-[(3,3-difluoro-1-methylcyclobutyl)methoxy]-1-(4-fluorophenyl)-N-(methanesulfonyl)-3-(propan-2-yl)-1H-pyrazolo[3,4-b]pyridine-6-carboxamide]	321.1	82.4	146.7	158
CC(C)c1nn(-c2ccc(F)cc2)c2nc(C(=O)NS(C)(=O)=O)cc(OCCCN3CCCCC3)c12 [Compound 307, 1-(4-fluorophenyl)-N-(methanesulfonyl)-4-[3-(piperidin-1-yl)propoxy]-3-(propan-2-yl)-1H-pyrazolo[3,4-b]pyridine-6-carboxamide]	299.25	1280	172.7	3330
CC(C)c1nn(-c2ccc(F)cc2)c2nc(C(=O)NS(C)(=O)=O)cc(OCCN(C(C)C)C3COC3)c12 [Compound 309, 1-(4-fluorophenyl)-N-(methanesulfonyl)-4-{2-[(oxetan-3-yl)(propan-2-yl)amino]ethoxy}-3-(propan-2-yl)-1H-pyrazolo[3,4-b]pyridine-6-carboxamide]	303.6	224	149	444
